Measurements reported in patent publication US20050282743A1, “Molecular interactions in cells” (Arbor Vita Corporation, priority 2001, published 2005).
Peptide text beside a SMILES is read from it. * marks the point of attachment. Biotin = O=C1N[C@H]2[C@H](CS[C@H]2CCCCC(=O)*)N1

Columns and labels:
Test in all cases: G' assay (10 uM PL peptide), results of TABLE 7 and TABLE 12
Assay type in all cases: binding
[1] = target: T1, PDZ protein (GST-PDZ fusion) (Homo sapiens, UniProt P57105); conditions: PDZ Outer Membrane, PDZ Domain 1
T1 construct: made in house; host or cells: E. coli (DH5alpha, BL21 or JM109)
T1 sequence (P57105 1-145): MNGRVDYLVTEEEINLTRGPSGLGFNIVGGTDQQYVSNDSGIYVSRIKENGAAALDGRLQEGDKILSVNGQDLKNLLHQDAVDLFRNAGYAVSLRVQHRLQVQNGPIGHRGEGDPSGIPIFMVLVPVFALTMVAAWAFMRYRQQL
How it was run: (§1)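 Biotin-PL peptide (N-term label), 10 uM vs GST-PDZ; protein 5 ug/ml by default. A450 nm binned: 1 = 0-1, 2 = 1-2, 3 = 2-3, 4 = 3-4, 5 = >4 on >2 repeats, 0 = no binding.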

[2] = target: T2, PDZ protein (GST-PDZ fusion) (Homo sapiens, UniProt Q12959)
T2 construct: made in house; host or cells: E. coli (DH5alpha, BL21 or JM109)
How it was run: as §1

[3] = target: T3, PDZ protein (GST-PDZ fusion) (Homo sapiens, UniProt Q15700)
T3 construct: made in house; host or cells: E. coli (DH5alpha, BL21 or JM109)
How it was run: as §1

[4] = target: T4, PDZ protein (GST-PDZ fusion) (Homo sapiens, UniProt O15018); conditions: PDZ AIPC, PDZ Domain 1
T4 construct: made in house; host or cells: E. coli (DH5alpha, BL21 or JM109)
How it was run: as §1

[5] = target: T5, PDZ protein (GST-PDZ fusion) (Homo sapiens, UniProt O14907); conditions: PDZ TIP1, PDZ Domain 1
T5 construct: made in house; host or cells: E. coli (DH5alpha, BL21 or JM109)
T5 sequence (O14907 1-124): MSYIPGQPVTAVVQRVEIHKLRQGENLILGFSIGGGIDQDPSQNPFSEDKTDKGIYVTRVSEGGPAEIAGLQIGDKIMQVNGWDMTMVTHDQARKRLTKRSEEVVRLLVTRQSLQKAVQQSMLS
How it was run: as §1

[6] = target: T6, PDZ protein (GST-PDZ fusion) (Homo sapiens, UniProt Q92796); conditions: PDZ NeDLG
T6 construct: made in house; host or cells: E. coli (DH5alpha, BL21 or JM109)
T6 sequence (Q92796 1-817): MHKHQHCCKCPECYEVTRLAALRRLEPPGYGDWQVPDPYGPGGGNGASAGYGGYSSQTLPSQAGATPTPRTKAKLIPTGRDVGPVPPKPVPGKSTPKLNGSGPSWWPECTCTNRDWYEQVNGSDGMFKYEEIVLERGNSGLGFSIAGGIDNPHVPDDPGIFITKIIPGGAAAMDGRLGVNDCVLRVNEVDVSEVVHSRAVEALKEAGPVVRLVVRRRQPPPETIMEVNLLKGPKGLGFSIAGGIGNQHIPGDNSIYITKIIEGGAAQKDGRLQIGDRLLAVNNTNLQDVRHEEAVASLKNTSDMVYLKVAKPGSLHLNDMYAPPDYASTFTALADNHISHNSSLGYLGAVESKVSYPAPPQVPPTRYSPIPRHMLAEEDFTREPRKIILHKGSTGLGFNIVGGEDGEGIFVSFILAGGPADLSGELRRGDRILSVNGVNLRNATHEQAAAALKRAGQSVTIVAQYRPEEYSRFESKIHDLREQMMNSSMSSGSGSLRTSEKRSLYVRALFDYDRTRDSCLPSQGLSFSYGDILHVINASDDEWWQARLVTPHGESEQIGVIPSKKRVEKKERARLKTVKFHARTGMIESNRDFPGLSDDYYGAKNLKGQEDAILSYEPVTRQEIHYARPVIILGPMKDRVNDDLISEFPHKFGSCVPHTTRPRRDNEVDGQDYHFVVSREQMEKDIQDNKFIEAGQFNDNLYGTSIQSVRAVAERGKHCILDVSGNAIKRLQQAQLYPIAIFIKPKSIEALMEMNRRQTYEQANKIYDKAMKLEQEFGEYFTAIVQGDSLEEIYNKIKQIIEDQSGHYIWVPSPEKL
How it was run: as §1

[7] = target: T7, PDZ protein (GST-PDZ fusion) (Homo sapiens, UniProt P78352)
T7 construct: made in house; host or cells: E. coli (DH5alpha, BL21 or JM109)
How it was run: as §1

[8] = target: T8, PDZ protein (GST-PDZ fusion) (Homo sapiens, UniProt Q8NI35); conditions: PDZ INADL
T8 construct: made in house; host or cells: E. coli (DH5alpha, BL21 or JM109)
How it was run: as §1

T7 sequence (P78352 whole entry, the tested form may be a part): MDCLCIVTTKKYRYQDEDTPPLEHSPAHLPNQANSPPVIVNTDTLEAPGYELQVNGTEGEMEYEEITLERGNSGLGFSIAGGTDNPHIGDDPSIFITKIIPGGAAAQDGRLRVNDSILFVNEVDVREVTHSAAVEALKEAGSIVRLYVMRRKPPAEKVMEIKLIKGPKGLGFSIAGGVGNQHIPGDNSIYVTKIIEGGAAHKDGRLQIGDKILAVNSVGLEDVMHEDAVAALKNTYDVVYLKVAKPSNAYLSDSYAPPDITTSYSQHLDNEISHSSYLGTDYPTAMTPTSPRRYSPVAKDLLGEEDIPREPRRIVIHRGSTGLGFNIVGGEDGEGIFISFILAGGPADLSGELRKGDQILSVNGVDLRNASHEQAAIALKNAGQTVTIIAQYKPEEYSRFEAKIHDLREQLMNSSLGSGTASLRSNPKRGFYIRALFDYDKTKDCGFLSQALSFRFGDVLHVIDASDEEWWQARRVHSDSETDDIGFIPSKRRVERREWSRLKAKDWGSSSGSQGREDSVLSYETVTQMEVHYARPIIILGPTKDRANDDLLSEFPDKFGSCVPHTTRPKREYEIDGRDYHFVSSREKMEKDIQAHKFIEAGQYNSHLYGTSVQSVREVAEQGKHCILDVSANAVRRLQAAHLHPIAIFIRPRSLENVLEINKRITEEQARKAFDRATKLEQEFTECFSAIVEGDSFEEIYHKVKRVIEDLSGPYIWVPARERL
T4 sequence (O15018 whole entry, the tested form may be a part): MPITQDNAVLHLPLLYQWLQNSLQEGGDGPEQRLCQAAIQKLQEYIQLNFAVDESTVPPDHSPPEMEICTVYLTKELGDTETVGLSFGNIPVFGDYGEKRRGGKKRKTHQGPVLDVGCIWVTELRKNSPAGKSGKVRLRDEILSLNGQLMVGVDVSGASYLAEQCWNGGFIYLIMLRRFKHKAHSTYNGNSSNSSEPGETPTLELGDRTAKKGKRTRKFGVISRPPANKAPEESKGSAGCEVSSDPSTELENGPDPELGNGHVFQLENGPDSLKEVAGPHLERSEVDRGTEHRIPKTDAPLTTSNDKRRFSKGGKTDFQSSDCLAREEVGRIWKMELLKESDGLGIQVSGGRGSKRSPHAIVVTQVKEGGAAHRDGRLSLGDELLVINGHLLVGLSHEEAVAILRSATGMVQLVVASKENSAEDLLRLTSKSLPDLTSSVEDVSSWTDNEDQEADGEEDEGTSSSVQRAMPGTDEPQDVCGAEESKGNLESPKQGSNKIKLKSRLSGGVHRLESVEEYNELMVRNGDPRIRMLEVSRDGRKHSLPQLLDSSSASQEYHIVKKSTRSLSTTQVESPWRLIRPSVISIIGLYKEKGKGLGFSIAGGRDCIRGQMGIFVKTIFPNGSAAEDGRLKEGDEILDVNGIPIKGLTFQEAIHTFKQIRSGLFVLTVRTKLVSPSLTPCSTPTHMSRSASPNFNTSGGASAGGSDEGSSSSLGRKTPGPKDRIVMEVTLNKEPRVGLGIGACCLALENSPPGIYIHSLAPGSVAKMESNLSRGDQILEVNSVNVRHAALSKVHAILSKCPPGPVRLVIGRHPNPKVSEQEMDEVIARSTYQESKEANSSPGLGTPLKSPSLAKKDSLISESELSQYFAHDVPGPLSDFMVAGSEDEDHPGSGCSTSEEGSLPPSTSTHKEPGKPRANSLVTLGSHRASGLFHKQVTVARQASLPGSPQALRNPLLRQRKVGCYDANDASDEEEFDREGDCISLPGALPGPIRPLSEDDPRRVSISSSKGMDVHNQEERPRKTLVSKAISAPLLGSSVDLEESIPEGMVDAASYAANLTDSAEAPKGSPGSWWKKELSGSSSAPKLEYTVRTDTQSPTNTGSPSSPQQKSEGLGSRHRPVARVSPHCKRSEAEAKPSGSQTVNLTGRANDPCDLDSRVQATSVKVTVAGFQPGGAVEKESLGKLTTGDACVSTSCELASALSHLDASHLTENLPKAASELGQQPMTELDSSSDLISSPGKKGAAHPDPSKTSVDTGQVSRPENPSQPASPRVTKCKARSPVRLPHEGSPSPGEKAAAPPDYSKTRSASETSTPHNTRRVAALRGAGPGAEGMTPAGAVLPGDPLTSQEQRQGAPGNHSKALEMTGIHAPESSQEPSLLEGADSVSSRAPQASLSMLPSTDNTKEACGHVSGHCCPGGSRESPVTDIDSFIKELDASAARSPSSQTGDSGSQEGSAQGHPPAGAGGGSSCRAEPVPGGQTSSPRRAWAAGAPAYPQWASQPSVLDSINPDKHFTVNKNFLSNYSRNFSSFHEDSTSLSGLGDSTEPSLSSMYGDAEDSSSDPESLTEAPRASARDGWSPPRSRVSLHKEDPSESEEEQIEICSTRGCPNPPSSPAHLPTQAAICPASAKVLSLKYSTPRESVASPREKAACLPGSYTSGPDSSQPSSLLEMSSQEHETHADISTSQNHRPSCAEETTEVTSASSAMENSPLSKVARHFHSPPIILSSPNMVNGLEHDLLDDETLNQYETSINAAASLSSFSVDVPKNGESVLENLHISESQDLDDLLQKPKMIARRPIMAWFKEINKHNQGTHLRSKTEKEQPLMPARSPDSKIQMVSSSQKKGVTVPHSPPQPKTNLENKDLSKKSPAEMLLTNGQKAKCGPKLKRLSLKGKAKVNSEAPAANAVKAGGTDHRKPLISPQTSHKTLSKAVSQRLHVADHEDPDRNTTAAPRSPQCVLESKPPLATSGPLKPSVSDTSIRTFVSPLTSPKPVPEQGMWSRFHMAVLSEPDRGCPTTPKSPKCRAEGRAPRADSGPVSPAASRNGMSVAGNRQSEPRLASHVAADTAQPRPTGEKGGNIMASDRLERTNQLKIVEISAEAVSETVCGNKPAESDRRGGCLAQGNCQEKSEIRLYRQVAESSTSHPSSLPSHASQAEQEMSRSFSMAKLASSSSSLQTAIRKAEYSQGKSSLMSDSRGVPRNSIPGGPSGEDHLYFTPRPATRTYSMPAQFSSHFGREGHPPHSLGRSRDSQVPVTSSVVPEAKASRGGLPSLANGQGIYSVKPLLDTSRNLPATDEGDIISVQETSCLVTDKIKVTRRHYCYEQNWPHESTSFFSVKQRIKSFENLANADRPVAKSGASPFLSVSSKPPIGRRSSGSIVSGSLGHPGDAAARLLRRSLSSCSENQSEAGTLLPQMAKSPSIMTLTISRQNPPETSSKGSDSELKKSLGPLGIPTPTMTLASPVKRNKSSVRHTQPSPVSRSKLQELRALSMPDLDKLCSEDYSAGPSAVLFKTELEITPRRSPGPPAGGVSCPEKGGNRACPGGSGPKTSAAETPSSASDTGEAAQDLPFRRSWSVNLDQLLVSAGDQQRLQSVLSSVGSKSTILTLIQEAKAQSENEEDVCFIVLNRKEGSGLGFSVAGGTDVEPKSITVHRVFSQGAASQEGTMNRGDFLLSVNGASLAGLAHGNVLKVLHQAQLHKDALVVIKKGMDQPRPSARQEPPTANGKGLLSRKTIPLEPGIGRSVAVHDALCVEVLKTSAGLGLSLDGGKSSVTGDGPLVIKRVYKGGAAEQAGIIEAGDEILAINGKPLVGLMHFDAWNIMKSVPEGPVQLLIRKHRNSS
T3 sequence (Q15700 whole entry, the tested form may be a part): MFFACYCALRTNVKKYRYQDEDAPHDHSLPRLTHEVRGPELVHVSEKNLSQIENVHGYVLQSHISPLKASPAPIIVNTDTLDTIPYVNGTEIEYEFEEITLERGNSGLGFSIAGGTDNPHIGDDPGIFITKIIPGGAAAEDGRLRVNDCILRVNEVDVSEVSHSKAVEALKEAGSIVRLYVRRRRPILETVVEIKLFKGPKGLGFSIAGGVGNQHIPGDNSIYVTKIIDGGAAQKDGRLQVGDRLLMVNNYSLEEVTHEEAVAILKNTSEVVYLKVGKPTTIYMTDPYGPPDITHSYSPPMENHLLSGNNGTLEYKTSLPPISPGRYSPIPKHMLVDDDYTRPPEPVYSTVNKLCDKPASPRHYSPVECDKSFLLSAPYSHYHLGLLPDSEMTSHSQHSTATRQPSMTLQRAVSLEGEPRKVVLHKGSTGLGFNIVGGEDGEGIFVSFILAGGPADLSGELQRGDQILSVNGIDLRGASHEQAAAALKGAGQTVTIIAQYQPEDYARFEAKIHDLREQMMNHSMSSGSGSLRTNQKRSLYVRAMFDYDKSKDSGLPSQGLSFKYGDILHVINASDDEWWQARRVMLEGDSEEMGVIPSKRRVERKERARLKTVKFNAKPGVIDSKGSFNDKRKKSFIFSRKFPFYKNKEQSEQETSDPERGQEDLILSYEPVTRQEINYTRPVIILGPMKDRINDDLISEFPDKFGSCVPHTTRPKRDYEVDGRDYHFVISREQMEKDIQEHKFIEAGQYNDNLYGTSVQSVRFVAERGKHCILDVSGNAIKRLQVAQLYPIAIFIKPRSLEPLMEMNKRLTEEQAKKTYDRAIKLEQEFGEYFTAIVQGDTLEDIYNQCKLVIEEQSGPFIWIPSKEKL

| Classification ([2]; PDZ DLG1, PDZ Domain 1, 2) | SMILES | Classification [1] | Classification ([2]; PDZ DLG1, PDZ Domain 2) | Classification ([3]; PDZ DLG2, PDZ Domain 2) | Classification [4] | Classification [5] | Classification ([2]; PDZ DLG1, PDZ Domain 1) | Classification ([3]; PDZ DLG2, PDZ Domain 1) | Classification ([6]; PDZ Domain 1) | Classification ([6]; PDZ Domain 1, 2) | Classification ([6]; PDZ Domain 2) | Classification ([6]; PDZ Domain 3) | Classification ([7]; PDZ PSD95, PDZ Domain 1) | Classification ([7]; PDZ PSD95, PDZ Domain 1, 2, 3) | Classification ([7]; PDZ PSD95, PDZ Domain 3) | Classification ([8]; PDZ Domain 8) | Classification ([8]; PDZ Domain 3) | Classification ([7]; PDZ PSD95, PDZ Domain 2) |
| --- | --- | --- | --- | --- | --- | --- | --- | --- | --- | --- | --- | --- | --- | --- | --- | --- | --- | --- |
| – | CC[C@H](C)[C@H](NC(=O)[C@H](CCC(=O)O)NC(=O)[C@H](CC(N)=O)NC(=O)[C@H](CCCNC(=N)N)NC(=O)[C@H](Cc1ccccc1)NC(=O)[C@H](CC(N)=O)NC(=O)[C@H](CO)NC(=O)[C@H](CC(N)=O)NC(=O)[C@H](CCC(=O)O)NC(=O)[C@H](CO)NC(=O)[C@H](CC(=O)O)NC(=O)[C@H](CO)NC(=O)[C@@H](NC(=O)[C@@H](NC(=O)[C@H](CC(=O)O)NC(=O)[C@H](CCCCN)NC(=O)CCCC[C@@H]1SC[C@@H]2NC(=O)N[C@@H]21)[C@@H](C)CC)[C@@H](C)O)C(=O)N[C@@H](CCC(N)=O)C(=O)N[C@@H](CO)C(=O)N[C@@H](CC(C)C)C(=O)N[C@H](C(=O)O)C(C)C [CD95] (Biotin-KDITSDSENSNFRNEIQSLV-OH; C-terminus assumed) | 1 (A450 nm 0-1) | 1 (A450 nm 0-1) | 1 (A450 nm 0-1) | 1 (A450 nm 0-1) | – | – | – | – | – | – | – | – | – | – | – | – | – |
| – | CC(C)C[C@H](NC(=O)[C@H](C)NC(=O)[C@@H](NC(=O)[C@H](CCC(=O)O)NC(=O)[C@H](CCCNC(=N)N)NC(=O)[C@H](CCCNC(=N)N)NC(=O)CNC(=O)[C@H](CCC(N)=O)NC(=O)[C@H](CC(C)C)NC(=O)[C@H](CCCNC(=N)N)NC(=O)CNC(=O)CNC(=O)[C@H](CCCNC(=N)N)NC(=O)[C@H](C)NC(=O)[C@H](CO)NC(=O)[C@H](CCCNC(=N)N)NC(=O)CNC(=O)CNC(=O)[C@H](C)NC(=O)[C@H](C)NC(=O)CCCC[C@@H]1SC[C@@H]2NC(=O)N[C@@H]21)[C@@H](C)O)C(=O)O [HPV E6 33 (modified)] (Biotin-AAGGRSARGGRLQGRRETAL-OH; C-terminus assumed) | 5 (A450 nm of 4 more than 2× repeated) | 5 (A450 nm of 4 more than 2× repeated) | 3 (A450 nm 2-3) | 1 (A450 nm 0-1) | 5 (A450 nm of 4 more than 2× repeated) | 3 (A450 nm 2-3) | 1 (A450 nm 0-1) | 1 (A450 nm 0-1) | 5 (A450 nm of 4 more than 2× repeated) | 2 (A450 nm 1-2) | 1 (A450 nm 0-1) | 2 (A450 nm 1-2) | 5 (A450 nm of 4 more than 2× repeated) | 5 (A450 nm of 4 more than 2× repeated) | – | – | – |
| – | CC(C)C[C@H](NC(=O)[C@H](CCCNC(=N)N)NC(=O)CNC(=O)CNC(=O)[C@H](CCCNC(=N)N)NC(=O)[C@H](C)NC(=O)[C@@H]1CCCN1C(=O)[C@H](CCCNC(=N)N)NC(=O)CNC(=O)CNC(=O)[C@@H](NC(=O)[C@H](C)NC(=O)CCCC[C@@H]1SC[C@@H]2NC(=O)N[C@@H]21)C(C)C)C(=O)N[C@@H](CCC(N)=O)C(=O)NCC(=O)N[C@@H](CCCNC(=N)N)C(=O)N[C@@H](CCCNC(=N)N)C(=O)N[C@@H](CCC(N)=O)C(=O)N[C@H](C(=O)N[C@@H](CCC(N)=O)C(=O)N[C@H](C(=O)O)C(C)C)[C@@H](C)O [HPV E6 58 (modified)] (Biotin-AVGGRPARGGRLQGRRQTQV-OH; C-terminus assumed) | 5 (A450 nm of 4 more than 2× repeated) | 5 (A450 nm of 4 more than 2× repeated) | 5 (A450 nm of 4 more than 2× repeated) | – | 4 (A450 nm 3-4) | 5 (A450 nm of 4 more than 2× repeated) | – | 1 (A450 nm 0-1) | 5 (A450 nm of 4 more than 2× repeated) | 5 (A450 nm of 4 more than 2× repeated) | 2 (A450 nm 1-2) | 5 (A450 nm of 4 more than 2× repeated) | 5 (A450 nm of 4 more than 2× repeated) | 5 (A450 nm of 4 more than 2× repeated) | 4 (A450 nm 3-4) | – | – |
| 2 (A450 nm 1-2) | CC[C@H](C)[C@H](NC(=O)[C@H](CCC(=O)O)NC(=O)[C@H](CO)NC(=O)[C@H](CCC(=O)O)NC(=O)[C@H](CCCNC(=N)N)NC(=O)[C@H](CCCNC(=N)N)NC(=O)[C@H](CC(C)C)NC(=O)[C@@H]1CCCN1C(=O)[C@H](CCCNC(=N)N)NC(=O)[C@@H]1CCCN1C(=O)[C@H](CCC(=O)O)NC(=O)[C@H](CC(C)C)NC(=O)[C@@H]1CCCN1C(=O)[C@@H](NC(=O)[C@H](CO)NC(=O)[C@H](C)NC(=O)[C@H](CCC(N)=O)NC(=O)[C@H](CC(N)=O)NC(=O)[C@H](Cc1c[nH]cn1)NC(=O)[C@H](CC(C)C)NC(=O)CCCC[C@@H]1SC[C@@H]2NC(=O)N[C@@H]21)C(C)C)C(=O)O [Kir2.1 (inwardly rect. K+ channel)] (Biotin-LHNQASVPLEPRPLRRESEI-OH; C-terminus assumed) | 4 (A450 nm 3-4) | 1 (A450 nm 0-1) | 1 (A450 nm 0-1) | – | – | – | – | – | 1 (A450 nm 0-1) | – | – | – | 2 (A450 nm 1-2) | – | – | – | – |
| – | CC[C@H](C)[C@H](NC(=O)[C@H](CCC(N)=O)NC(=O)CCCC[C@@H]1SC[C@@H]2NC(=O)N[C@@H]21)C(=O)N[C@@H](CO)C(=O)N1CCC[C@H]1C(=O)NCC(=O)NCC(=O)N[C@@H](CC(C)C)C(=O)N[C@@H](CCC(=O)O)C(=O)N1CCC[C@H]1C(=O)N1CCC[C@H]1C(=O)N[C@@H](CO)C(=O)N[C@@H](CCC(=O)O)C(=O)N[C@@H](CCCCN)C(=O)N[C@@H](Cc1c[nH]cn1)C(=O)N[C@@H](Cc1ccccc1)C(=O)N[C@@H](CCCNC(=N)N)C(=O)N[C@@H](CCC(=O)O)C(=O)N[C@H](C(=O)N[C@@H](CCC(=O)O)C(=O)N[C@H](C(=O)O)C(C)C)[C@@H](C)O [Tax] | 5 (A450 nm of 4 more than 2× repeated) | 5 (A450 nm of 4 more than 2× repeated) | 5 (A450 nm of 4 more than 2× repeated) | 1 (A450 nm 0-1) | – | 5 (A450 nm of 4 more than 2× repeated) | 2 (A450 nm 1-2) | – | – | 5 (A450 nm of 4 more than 2× repeated) | 5 (A450 nm of 4 more than 2× repeated) | 5 (A450 nm of 4 more than 2× repeated) | – | 1 (A450 nm 0-1) | – | 1 (A450 nm 0-1) | 1 (A450 nm 0-1) |
